Read-outs that look alike come from different tables or passages of the source.

In general, IC50 refers to the concentration at which inhibition is half-maximal.

One experiment addresses PI3K-gamma (Homo sapiens, UniProt P48736). Description: PI3K-gamma fluorescence polarization assay. It is filed as biochemical. The protocol: PI3K-Alpha, PI3K-Beta, PI3K-Gamma, and PI3K-delta Fluorescence Polarization Assay Protocols
PI3-Kinase reactions were performed in 5 mM HEPES, pH 7, 2.5 mM MgCl2, and 25 μM ATP, with diC8-PI(4,5)P2 (Echelon, Salt Lake City Utah) as substrate. Nunc 384-well black polypropylene fluorescent plates were used for PI3K assays. Reactions were quenched by the addition of EDTA to a final concentration of 10 mM. Final reaction volumes were 10 μl. For evaluation of PI3K inhibitors, 5 ng of enzyme (PI3K-alpha, beta, gamma, or delta) and 2.5 μM of substrate was used per […] reaction volume, and inhibitor concentrations ranged from 100 μM to 20 μM; the final level of DMSO in reactions never exceeded 2%. Reactions were allowed to proceed for one hour at 25° C. After 1 hour, GST-tagged GRP1 (general receptor for phosphoinositides) PH domain fusion protein was added to a final concentration of 100 nM, and BODIPY-TMRI(1,3,4,5)P4 (Echelon) was also added to a final concentration of 5 nM. Final sample volumes were 25 μl with a final DMSO concentration of 0.8%. Assay Plates were read on Perkin-Elmer Envision plate readers with appropriate filters for Tamra [BODIPY-TMRI(1,3,4,5)P4]. Data obtained were used to calculate enzymatic activity and enzyme inhibition by inhibitor compounds.
(In fluorescence polarisation assays a small probe gives low polarisation when free and higher when bound to something large.)

The next experiment addresses PI3K-alpha (Homo sapiens, UniProt P42336). Description: PI3K-alpha fluorescence polarization assay. It is filed as biochemical. The conditions noted are these: read-out: PI3Kα Avg. IC50.

Chain of PI3K-alpha (P42336 whole entry, species assumed): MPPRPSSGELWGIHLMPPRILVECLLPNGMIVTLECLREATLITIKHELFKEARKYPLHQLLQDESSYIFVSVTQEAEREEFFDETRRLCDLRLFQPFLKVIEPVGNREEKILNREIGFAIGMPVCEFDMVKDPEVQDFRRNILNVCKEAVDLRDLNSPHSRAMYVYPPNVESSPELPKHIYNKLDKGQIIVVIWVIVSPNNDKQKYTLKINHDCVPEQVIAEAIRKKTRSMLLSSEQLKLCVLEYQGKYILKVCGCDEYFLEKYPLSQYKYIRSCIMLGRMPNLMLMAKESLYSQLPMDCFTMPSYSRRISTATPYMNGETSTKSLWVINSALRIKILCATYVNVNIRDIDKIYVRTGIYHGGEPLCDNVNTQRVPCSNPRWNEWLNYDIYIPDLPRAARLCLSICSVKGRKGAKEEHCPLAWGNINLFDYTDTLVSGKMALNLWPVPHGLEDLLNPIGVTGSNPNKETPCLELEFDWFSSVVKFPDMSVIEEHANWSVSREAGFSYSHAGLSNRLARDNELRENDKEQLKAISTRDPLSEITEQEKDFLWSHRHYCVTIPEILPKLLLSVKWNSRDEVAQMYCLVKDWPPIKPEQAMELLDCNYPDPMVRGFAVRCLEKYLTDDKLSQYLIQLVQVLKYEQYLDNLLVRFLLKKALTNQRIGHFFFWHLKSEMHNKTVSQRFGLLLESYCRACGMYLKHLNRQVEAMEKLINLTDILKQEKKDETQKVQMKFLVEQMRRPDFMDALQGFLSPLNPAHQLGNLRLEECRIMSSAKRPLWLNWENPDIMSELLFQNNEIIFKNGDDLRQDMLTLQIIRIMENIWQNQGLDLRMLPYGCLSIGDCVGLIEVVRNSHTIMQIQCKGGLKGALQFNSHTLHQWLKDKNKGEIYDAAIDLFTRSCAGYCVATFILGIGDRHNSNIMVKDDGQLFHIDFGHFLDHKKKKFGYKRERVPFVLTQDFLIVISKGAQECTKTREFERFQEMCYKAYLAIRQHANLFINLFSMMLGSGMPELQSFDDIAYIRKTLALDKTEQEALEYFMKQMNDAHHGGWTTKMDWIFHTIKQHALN
Chain of PI3K-alpha (P27986 whole entry partner, species assumed): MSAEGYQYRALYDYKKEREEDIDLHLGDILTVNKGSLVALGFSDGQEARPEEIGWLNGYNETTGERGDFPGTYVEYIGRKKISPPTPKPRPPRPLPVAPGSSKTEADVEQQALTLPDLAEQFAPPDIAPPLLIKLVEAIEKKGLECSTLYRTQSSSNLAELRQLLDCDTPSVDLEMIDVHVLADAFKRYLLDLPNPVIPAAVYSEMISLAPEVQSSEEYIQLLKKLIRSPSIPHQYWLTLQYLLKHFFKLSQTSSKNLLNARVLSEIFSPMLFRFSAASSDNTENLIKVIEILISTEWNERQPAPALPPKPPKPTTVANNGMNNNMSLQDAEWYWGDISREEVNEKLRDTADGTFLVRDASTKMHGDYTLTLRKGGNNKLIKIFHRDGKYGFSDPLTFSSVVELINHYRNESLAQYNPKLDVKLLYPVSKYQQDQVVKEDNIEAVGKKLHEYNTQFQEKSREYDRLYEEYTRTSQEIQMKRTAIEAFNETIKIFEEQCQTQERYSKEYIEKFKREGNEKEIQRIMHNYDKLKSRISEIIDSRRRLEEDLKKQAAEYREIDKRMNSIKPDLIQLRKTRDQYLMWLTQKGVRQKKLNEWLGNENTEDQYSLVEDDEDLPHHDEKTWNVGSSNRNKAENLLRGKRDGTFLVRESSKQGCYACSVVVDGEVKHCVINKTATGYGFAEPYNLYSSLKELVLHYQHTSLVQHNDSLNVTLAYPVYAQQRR
Chain of PI3K-gamma (P48736 whole entry, species assumed): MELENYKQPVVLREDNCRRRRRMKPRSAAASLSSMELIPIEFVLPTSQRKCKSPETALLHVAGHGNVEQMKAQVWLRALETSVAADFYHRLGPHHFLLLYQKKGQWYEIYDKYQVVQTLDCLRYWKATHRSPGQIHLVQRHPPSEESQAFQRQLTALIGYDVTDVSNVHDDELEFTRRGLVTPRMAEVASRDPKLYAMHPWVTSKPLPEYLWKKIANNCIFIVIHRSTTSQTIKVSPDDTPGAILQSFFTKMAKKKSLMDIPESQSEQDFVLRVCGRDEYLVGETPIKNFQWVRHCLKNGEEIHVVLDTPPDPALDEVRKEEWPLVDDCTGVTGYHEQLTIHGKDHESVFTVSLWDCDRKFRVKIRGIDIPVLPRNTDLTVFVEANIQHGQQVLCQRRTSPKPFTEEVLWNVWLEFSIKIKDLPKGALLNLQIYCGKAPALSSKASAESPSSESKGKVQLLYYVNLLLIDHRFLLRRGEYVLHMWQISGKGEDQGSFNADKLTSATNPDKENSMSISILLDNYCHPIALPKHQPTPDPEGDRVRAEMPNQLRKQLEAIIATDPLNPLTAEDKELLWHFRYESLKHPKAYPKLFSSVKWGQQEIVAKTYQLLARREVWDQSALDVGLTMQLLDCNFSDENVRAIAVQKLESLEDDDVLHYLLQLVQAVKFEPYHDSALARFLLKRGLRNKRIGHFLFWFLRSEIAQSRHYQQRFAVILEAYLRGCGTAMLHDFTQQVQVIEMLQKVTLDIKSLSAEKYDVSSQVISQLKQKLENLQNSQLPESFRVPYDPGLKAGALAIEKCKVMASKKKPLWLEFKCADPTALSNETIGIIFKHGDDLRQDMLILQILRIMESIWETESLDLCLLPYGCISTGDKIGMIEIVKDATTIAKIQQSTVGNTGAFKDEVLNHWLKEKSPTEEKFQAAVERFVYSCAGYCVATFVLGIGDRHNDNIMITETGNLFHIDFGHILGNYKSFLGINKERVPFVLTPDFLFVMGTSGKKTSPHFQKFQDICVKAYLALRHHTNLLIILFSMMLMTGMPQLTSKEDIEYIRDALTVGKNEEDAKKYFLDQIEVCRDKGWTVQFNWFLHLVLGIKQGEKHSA

On to `COc1cc(-c2cccnc2)c2[nH]cc(/C=C3\Oc4cc(O)ccc4C3=O)c2c1` [Compound 480, (2Z)-6-hydroxy-2-[(5-methoxy-7-pyridin-3-yl-1H-indol-3-yl)methylene]-1-benzofuran-3(2H)-one], for which the 50% inhibitory concentration (IC50) at PI3K-gamma (PI3Kγ Avg. IC50) amounted to 3510 nM; on PI3K-alpha, 81.5 nM.
On the same counts, the results for `COC(=O)Nc1ccc2c(c1)C(=O)/C(=C/c1cn(CCCN(C)C)c3ccc(OC)cc13)O2` [Compound 538, methyl [(2Z)-2-({1-[3-(dimethylamino)propyl]-5-methoxy-1H-indol-3-yl}methylene)-3-oxo-2,3-dihydro-1-benzofuran-5-yl]carbamate] are greater than 10000 nM and 820 nM.
On the same counts, the results for `Cn1cc(C=C2Oc3cc(O)cc(O)c3C2=O)c2c(-c3ccccc3)cccc21` (single isomer, unassigned) [Compound 544, (2E)-4,6-dihydroxy-2-[(1-methyl-4-phenyl-1H-indol-3-yl)methylene]-1-benzofuran-3(2H)-one-(2Z)-4,6-dihydroxy-2-[(1-methyl-4-phenyl-1H-indol-3-yl)methylene]-1-benzofuran-3(2H)-one (1:1)] are 2150 nM and 266 nM.
With `CCc1cc(OC)cc2c(/C=C3\Oc4cc(O)ccc4C3=O)cn(CCCC#N)c12` [Compound 474, 4-{7-ethyl-3-[(Z)-(6-hydroxy-3-oxo-1-benzofuran-2(3H)-ylidene)methyl]-5-methoxy-1H-indol-1-yl}butanenitrile], the IC50 at PI3K-gamma (PI3Kγ Avg. IC50) came out at 1390 nM; on PI3K-alpha it was 246 nM.
Regarding “6,7-dihydroxy-2-({5-methoxy-2-methyl-1-[4-(4-methylpiperazin-1-yl)butyl]-1H-indol-3-yl}methylene)-1-benzofuran-3(2H)-one [Example 132]”, the results for the IC50 at PI3K-gamma (read-out: PI3Kγ Avg. IC50) and at PI3K-alpha were 4150 nM and 337 nM, respectively.
As to `COc1ccc2[nH]cc(/C=C3\Oc4cc(-c5nn[nH]n5)ccc4C3=O)c2c1` [Compound 509, (2Z)-2-[(5-methoxy-1H-indol-3-yl)methylene]-6-(2H-tetrazol-5-yl)-1-benzofuran-3(2H)-one], the half-maximal inhibitory concentration (IC50) against PI3K-gamma (PI3Kγ Avg. IC50) was found to be 2470 nM; at PI3K-alpha, 484 nM.
As to `CCCc1noc(-c2[nH]c3ccc(OC)cc3c2/C=C2\Oc3ccc(NC(=O)NC)cc3C2=O)n1` [Compound 593, 1-[(2Z)-2-{[5-methoxy-2-(3-propyl-1,2,4-oxadiazol-5-yl)-1H-indol-3-yl]methylene}-3-oxo-2,3-dihydro-1-benzofuran-5-yl]-3-methylurea], the IC50 against PI3K-gamma (PI3Kγ Avg. IC50) turned out to be 776 nM; on PI3K-alpha, 12.5 nM.
The like results for `CNC(=O)Nc1ccc2c(c1)C(=O)/C(=C/c1c[nH]c3c(CN4CCOCC4)cc(OC)cc13)O2` [Compound 570, 1-[(2Z)-2-{[5-methoxy-7-(morpholin-4-ylmethyl)-1H-indol-3-yl]methylene}-3-oxo-2,3-dihydro-1-benzofuran-5-yl]-3-methylurea] were, in that order, 6490 nM and 8410 nM.
The like results for `COc1ccc2[nH]cc(/C=C3\Oc4cc(O)c(O)cc4C3=O)c2c1` [Compound 529, (2Z)-5,6-dihydroxy-2-[(5-methoxy-1H-indol-3-yl)methylene]-1-benzofuran-3(2H)-one] were, in that order, 8050 nM and 221 nM.
On the same counts, the results for `COc1ccc2c(c1)c(/C=C1\Oc3ccc(O)cc3C1=O)cn2CCCC#N` [Compound 514, 4-{3-[(Z)-(5-hydroxy-3-oxo-1-benzofuran-2(3H)-ylidene)methyl]-5-methoxy-1Hindol-1-yl}butanenitrile] are 4100 nM and 1380 nM.
As to `O=C1/C(=C/c2c(-c3ccc(F)cc3)[nH]c3ccccc23)Sc2ccccc21` [Example 277, (2Z)-2-{[2-(4-fluorophenyl)-1H-indol-3-yl]methylene}-1-benzothiophen-3(2H)-one], the half-inhibitory concentration (IC50) against PI3K-gamma (PI3Kγ Avg. IC50) stood at 264 nM; at PI3K-alpha, 268 nM.
